Among the data in patent publication US11648254B2 (Kumquat Biosciences Inc., priority 2021, dated 2023) are IC50 values, retold here.

Like-named read-outs stand apart in the source and are kept apart here. A value given as a limit tells only on which side of the number the result lay.

In one test the target is SOS1 (Homo sapiens (Human), UniProt Q07889). The test is described as follows: Ras-SOS interaction assay (HTRF). The class given is biochemical. (Time-resolved FRET reads energy transfer from a long-lived donor to a nearby acceptor.)
Chain of SOS1 (Q07889 564-1049): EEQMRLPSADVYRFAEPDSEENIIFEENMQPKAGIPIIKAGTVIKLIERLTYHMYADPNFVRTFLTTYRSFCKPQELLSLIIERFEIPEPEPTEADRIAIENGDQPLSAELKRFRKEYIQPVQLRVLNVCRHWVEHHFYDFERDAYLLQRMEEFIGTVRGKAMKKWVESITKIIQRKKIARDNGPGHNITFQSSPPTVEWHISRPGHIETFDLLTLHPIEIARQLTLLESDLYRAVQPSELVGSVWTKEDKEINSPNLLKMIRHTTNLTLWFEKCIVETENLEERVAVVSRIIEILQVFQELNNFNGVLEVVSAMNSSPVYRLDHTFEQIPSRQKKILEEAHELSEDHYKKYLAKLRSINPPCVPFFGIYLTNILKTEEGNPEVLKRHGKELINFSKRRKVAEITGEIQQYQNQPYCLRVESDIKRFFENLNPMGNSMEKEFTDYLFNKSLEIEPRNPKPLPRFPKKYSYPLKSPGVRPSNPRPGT
Test [1] has as its system MIA PaCa-2 cells (K-Ras G12C). Nature of the test: Ras-SOS cellular growth inhibition assay (CellTiter-Glo, 3D). The class given is cell-based. In short, it runs like this:
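Growth read by CellTiter-Glo luminescence about 5 days after dosing with 3-fold dilutions (9 points), added one day post-seeding. Cells: MIA PaCa-2, 3D culture on ultra-low-attachment surface, medium DMEM/Ham's F12 plus 10% FCS and 2.5% horse serum; IC50 by four-parameter fit.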

The test system of test [2] is NCI-H1975 cells (EGFR T790M L858R). The test is described as follows: EGFR-SOS cellular inhibition assay (CellTiter-Glo, 3D). Format: cell-based. On the technique in general: In ATP-based viability assays light output follows the ATP content of the culture.
[3] abbreviates: K-RasG13D utilized, read-out: IC50 inhibition of SOS.
The mark [4] stands for this setting: K-RasG13D, read-out: IC50 value against SOS1.
Where [5] appears, read: Homo sapiens, MIA PaCa-2, 120 h, MIA PaCa-2, 3D proliferation, about 5 days, read-out: Bio-Cell-Prolif-3D (MiaPaca2 IC50).
[6] abbreviates: Homo sapiens, MIA PaCa-2, MIA PaCa-2, read-out: IC50 in inhibiting MIA PaCa-2 cell growth.
[7] abbreviates: Homo sapiens, 120 h, NCI-H1975, 3D proliferation, about 5 days, read-out: Bio-Cell-Prolif-3D (H1975 IC50).
The mark [8] stands for this setting: Homo sapiens, NCI-H1975, EGFR T790M L858R, read-out: IC50 in inhibiting growth of NCI-H1975 cell line.

`Cc1nc(N[C@H](C)c2cccc(C(F)(F)C(C)O)c2F)c2cc(C3(C#N)CC3)c(Cl)nc2n1` (stereo in doubt) [Compound 333, 1-(7-chloro-4-(((R)-1-(3-((S)-1,1-difluoro-2-hydroxypropyl)-2-fluorophenyl)ethyl)amino)-2-methylpyrido[2,3-d]pyrimidin-6-yl)cyclopropane-1-carbonitrile]: the IC50 (commonly the concentration that gives 50% inhibition) on SOS1 (setting [3]) was less than 100 nM; at SOS1 (setting [4]), less than 50 nM; in test [1] (setting [5]), no more than 1000 nM; in test [1] (setting [6]), less than 500 nM; in test [2] (setting [7]), no more than 1000 nM; in test [2] (setting [8]) it was less than 500 nM.
`COc1nc2ncnc(N[C@H](C)c3cccc(C(F)(F)CO)c3)c2cc1N1CCN(C(C)C)CC1` [Compound 205, (R)-2,2-difluoro-2-(3-(1-((6-(4-isopropylpiperazin-1-yl)-7-methoxypyrido[2,3-d]pyrimidin-4-yl)amino)ethyl)phenyl)ethan-1-ol]: the IC50 at SOS1 (setting [3]) is less than 100 nM; at SOS1 (setting [4]), less than 50 nM; in test [1] (setting [5]) it was no more than 1000 nM; in test [1] (setting [6]), less than 500 nM; in test [2] (setting [7]) it was no more than 1000 nM; in test [2] (setting [8]) it was less than 500 nM.
With `CCN1CCC(c2cc3c(N[C@H](C)c4cccc(C(F)F)c4F)nc(C)nc3nc2OC)CC1` [Compound 119, (R)-N-(1-(3-(difluoromethyl)-2-fluorophenyl)ethyl)-6-(1-ethylpiperidin-4-yl)-7-methoxy-2-methylpyrido[2,3-d]pyrimidin-4-amine], the concentration for half-maximal inhibition (IC50) at SOS1 (setting [3]) is less than 100 nM; at SOS1 (setting [4]), less than 50 nM; in test [1] (setting [5]), no more than 1000 nM; in test [1] (setting [6]), less than 500 nM; in test [2] (setting [7]), no more than 1000 nM; in test [2] (setting [8]), less than 500 nM.
As to `CC(C)N1CCC(c2cc3c(N[C@H](C)c4cccc(C(F)(F)F)c4F)ncnc3nc2Cl)CC1` [Compound 384, (R)-7-chloro-N-(1-(2-fluoro-3-(trifluoromethyl)phenyl)ethyl)-6-(1-isopropylpiperidin-4-yl)pyrido[2,3-d] pyrimidin-4-amine], the IC50 was less than 100 nM on SOS1 (setting [3]); less than 50 nM at SOS1 (setting [4]); no more than 1000 nM in test [1] (setting [5]); less than 500 nM in test [1] (setting [6]); no more than 1000 nM in test [2] (setting [7]); less than 500 nM in test [2] (setting [8]).
Turning to `COc1nc2nc(C)nc(N[C@H](C)c3cccc(C(F)F)c3F)c2cc1N1CCNCC1` [Compound 110, (R)-N-(1-(3-(difluoromethyl)-2-fluorophenyl)ethyl)-7-methoxy-2-methyl-6-(piperazin-1-yl)pyrido[2,3-d]pyrimidin-4-amine], the half-maximal inhibitory concentration (IC50) is less than 100 nM at SOS1 (setting [3]), no more than 1000 nM in test [1] (setting [5]) and no more than 1000 nM in test [2] (setting [7]).
Consider `COc1nc2nc(C)nc(N[C@H](C)c3cccc(C(F)F)c3F)c2cc1C1=CCS(=O)(=O)CC1` [Compound 127, (R)-4-(4-((1-(3-(difluoromethyl)-2-fluorophenyl)ethyl)amino)-7-methoxy-2-methylpyrido[2,3-d]pyrimidin-6-yl)-3,6-dihydro-2H-thiopyran 1,1-dioxide], for which the IC50 is less than 100 nM on SOS1 (setting [3]); less than 50 nM at SOS1 (setting [4]); no more than 1000 nM in test [1] (setting [5]); less than 500 nM in test [1] (setting [6]); no more than 1000 nM in test [2] (setting [7]); less than 500 nM in test [2] (setting [8]).
For the compound `COc1nc2nc(C)nc(N[C@H](C)c3cccc(C(F)(F)F)c3C)c2cc1C1(C#N)CCN(C(C)C)CC1` [Compound 285, (R)-1-isopropyl-4-(7-methoxy-2-methyl-4-((1-(2-methyl-3-(trifluoromethyl)phenyl)ethyl)amino)pyrido[2,3-d]pyrimidin-6-yl)piperidine-4-carbonitrile], the IC50 at SOS1 (setting [3]) is less than 100 nM; at SOS1 (setting [4]) it was less than 50 nM; in test [1] (setting [5]), 1000 to 10000 nM; in test [2] (setting [7]), no more than 1000 nM.
`Cc1nc(N[C@H](C)c2cccc(C(F)F)c2F)c2cc(N3CCN(C(C)C)CC3)c(OC3CN(C)C3)nc2n1` [Compound 370, (R)-N-(1-(3-(difluoromethyl)-2-fluorophenyl)ethyl)-6-(4-isopropylpiperazin-1-yl)-2-methyl-7-((1-methylazetidin-3-yl)oxy)pyrido[2,3-d]pyrimidin-4-amine]: the concentration for half-maximal inhibition (IC50) on SOS1 (setting [3]) was less than 100 nM; on SOS1 (setting [4]) it was less than 50 nM; in test [1] (setting [5]), no more than 1000 nM; in test [2] (setting [7]), no more than 1000 nM.
As to `COc1nc2nc(C)nc(N[C@H](C)c3cccc(C(F)(F)F)c3F)c2cc1C1CCN(C(=O)[C@@H]2COCCO2)CC1` [Compound 301, ((S)-1,4-dioxan-2-yl)(4-(4-(((R)-1-(2-fluoro-3-(trifluoromethyl)phenyl)ethyl)amino)-7-methoxy-2-methylpyrido[2,3-d]pyrimidin-6-yl)piperidin-1-yl)methanone], the IC50 at SOS1 (setting [3]) was less than 100 nM; on SOS1 (setting [4]) it was less than 50 nM; in test [1] (setting [5]), 1000 to 10000 nM; in test [2] (setting [7]) it was no more than 1000 nM; in test [2] (setting [8]), less than 500 nM.
Take `COc1nc2nc(C)nc(N[C@H](C)c3cccc(C(F)F)c3F)c2cc1CN1CCN(C(C)C)CC1` [Compound 105, (R)—N-(1-(3-(difluoromethyl)-2-fluorophenyl)ethyl)-6-((4-isopropylpiperazin-1-yl)methyl)-7-methoxy-2-methylpyrido[2,3-d]pyrimidin-4-amine]: the 50% inhibitory concentration (IC50) on SOS1 (setting [3]) is less than 100 nM; on SOS1 (setting [4]) it was less than 50 nM; in test [1] (setting [5]), no more than 1000 nM; in test [1] (setting [6]) it was less than 500 nM; in test [2] (setting [7]) it was no more than 1000 nM; in test [2] (setting [8]), less than 500 nM.
Take `COc1nc2nc(C)nc(N[C@H](C)c3cccc(C(F)F)c3F)c2cc1C1CCN(CCO)CC1` [Compound 130, (R)-2-(4-(4-((1-(3-(difluoromethyl)-2-fluorophenyl)ethyl)amino)-7-methoxy-2-methylpyrido[2,3-d]pyrimidin-6-yl)piperidin-1-yl)ethan-1-ol]: the 50% inhibitory concentration (IC50) was less than 100 nM on SOS1 (setting [3]); less than 50 nM on SOS1 (setting [4]); no more than 1000 nM in test [1] (setting [5]); less than 500 nM in test [1] (setting [6]); no more than 1000 nM in test [2] (setting [7]); less than 500 nM in test [2] (setting [8]).
As to `COc1nc2ncnc(N[C@H](C)c3cccc(C(F)(F)C4CCC(N(C)C)CC4)c3F)c2cc1C1CCS(=O)(=O)CC1` (stereo partly drawn) [Compound 289, (R)-4-(4-((1-(3-((4-(dimethylamino)cyclohexyl)difluoromethyl)-2-fluorophenyl)ethyl)amino)-7-methoxypyrido[2,3-d]pyrimidin-6-yl)tetrahydro-2H-thiopyran 1,1-dioxide], the IC50 was less than 100 nM on SOS1 (setting [3]); less than 50 nM on SOS1 (setting [4]); no more than 1000 nM in test [1] (setting [5]); less than 500 nM in test [1] (setting [6]); no more than 1000 nM in test [2] (setting [7]); less than 500 nM in test [2] (setting [8]).
As for `CCN1CCN(c2cc3c(N[C@H](C)c4cccc(C(F)F)c4F)nc(C)nc3nc2OC)CC1` [Compound 115, (R)-N-(1-(3-(difluoromethyl)-2-fluorophenyl)ethyl)-6-(4-ethylpiperazin-1-yl)-7-methoxy-2-methylpyrido[2,3-d]pyrimidin-4-amine], the half-maximal inhibitory concentration (IC50) is less than 100 nM at SOS1 (setting [3]); less than 50 nM on SOS1 (setting [4]); no more than 1000 nM in test [1] (setting [5]); less than 500 nM in test [1] (setting [6]); no more than 1000 nM in test [2] (setting [7]).
On to `COc1nc2nc(C)nc(N[C@H](C)c3cccc(C(F)F)c3F)c2cc1C1CCS(=N)(=O)CC1` (stereo partly drawn) [Compound 154, (R)-4-(4-((1-(3-(difluoromethyl)-2-fluorophenyl)ethyl)amino)-7-methoxy-2-methylpyrido[2,3-d]pyrimidin-6-yl)-1-iminohexahydro-1λ6-thiopyran 1-oxide], for which the IC50 is less than 100 nM on SOS1 (setting [3]); less than 50 nM at SOS1 (setting [4]); no more than 1000 nM in test [1] (MIA PaCa-2, 3D proliferation, about 5 days, read-out: Bio-Cell-Prolif-3D (MiaPaca2 IC50)); less than 500 nM in test [1] (MIA PaCa-2, read-out: IC50 in inhibiting MIA PaCa-2 cell growth); no more than 1000 nM in test [2] (NCI-H1975, 3D proliferation, about 5 days, read-out: Bio-Cell-Prolif-3D (H1975 IC50)); less than 500 nM in test [2] (NCI-H1975, EGFR T790M L858R, read-out: IC50 in inhibiting growth of NCI-H1975 cell line).
As for `CNCCN1CCC(c2cc3c(N[C@H](C)c4cccc(C(F)F)c4F)nc(C)nc3nc2OC)CC1` [Compound 129, (R)-N-(1-(3-(difluoromethyl)-2-fluorophenyl)ethyl)-7-methoxy-2-methyl-6-(1-(2-(methyl-12-azaneyl)ethyl)piperidin-4-yl)pyrido[2,3-d]pyrimidin-4-amine], the concentration for half-maximal inhibition (IC50) on SOS1 (setting [3]) is less than 100 nM; at SOS1 (setting [4]), less than 50 nM; in test [1] (setting [5]), no more than 1000 nM; in test [2] (setting [7]) it was 1000 to 10000 nM.
For `COc1nc2nc(C)nc(N[C@H](C)c3cccc(C(F)F)c3F)c2cc1C1(C#N)CCN(C)CC1` [Compound 128, (R)-4-(4-((1-(3-(difluoromethyl)-2-fluorophenyl)ethyl)amino)-7-methoxy-2-methylpyrido[2,3-d]pyrimidin-6-yl)-1-methylpiperidine-4-carbonitrile], the IC50 is less than 100 nM on SOS1 (setting [3]); less than 50 nM on SOS1 (setting [4]); no more than 1000 nM in test [1] (setting [5]); less than 500 nM in test [1] (setting [6]); no more than 1000 nM in test [2] (setting [7]).
For the compound `COc1nc2nc(C)nc(N[C@H](C)c3cccc(C(F)(F)C4CCN(C(C)C)CC4)c3)c2cc1C1CCN(C(C)C)CC1` [Compound 420, (R)-N-(1-(3-(difluoro(1-isopropylpiperidin-4-yl)methyl)phenyl)ethyl)-6-(1-isopropylpiperidin-4-yl)-7-methoxy-2-methylpyrido[2,3-d] pyrimidin-4-amine], the concentration for half-maximal inhibition (IC50) was less than 100 nM at SOS1 (setting [3]); less than 50 nM on SOS1 (setting [4]); no more than 1000 nM in test [1] (setting [5]); less than 500 nM in test [1] (setting [6]); no more than 1000 nM in test [2] (setting [7]); less than 500 nM in test [2] (setting [8]).
